# Tests used:
# Type in all cases: cell-based
# [1] = system: Angioendothelial cells; assay: Nitric oxide production in cultured angioendothelial cells (Griess method); conditions: for Formed amount of nitric oxide: 24 hours after addition, L-Arg, L-PCA, GA concentrations (mM) in the medium differ per Example as in Table 1, medium without L-arginine
# Protocol: Angioendothelial cells were cultured using a DMEM medium (Dulbecco-modified MEM) containing 10% fetal bovine serum (FBS). However, phenol red and L-arginine were not added to the medium. The cells were cultured in the medium for 24 hours. After 24 hours of the culture, L-2-pyrrolidone-5-carboxylic acid and L-arginine were added to the medium, the amounts to be added being different for each Example and Comparative Example, as shown in Table 1 below. The culture was further continued for 24 hours.
# Thereafter, the produced amount of the nitric oxide was determined by measuring the nitrogen dioxide in the culture supernatant. Nitrogen dioxide was measured by Griess method. The number of the cells in the culture liquid were measured and the formed amount of the nitric oxide per 10^3 cells was expressed in terms of nmol. By the way, as negative controls, the example wherein neither arginine nor pyrrolidonecarboxylic acid was contained (Comparative Example 1) and the example wherein arginine was contained singly (Comparative Example 2) were used. Moreover, as a positive control, the example wherein arginine and glycolic acid were contained (Comparative Example 3) was used.
# [2] = system: cNOS; assay: RT-PCR of cNOS messenger RNA in angioendothelial cells; conditions: 24 hours; for Expressed amount of cNOS (Relative ratio): messenger RNA by RT-PCR
# Protocol: (§1) Angioendothelial cells were cultured using a DMEM medium (Dulbecco-modified MEM) containing 10% fetal bovine serum (FBS). The cells were cultured in the medium for 24 hours. After 24 hours of the culture, the cells were further cultured in the medium to which L-pyrrolidonecarboxylic acid was added so as to achieve a predetermined concentration (See Table 3 given later) for 24 hours, and then the RNA was extracted. For reverse transcription of the RNA, a kit for reverse transcription (manufactured by GIBCO) was used to prepare the cDNA. The cDNA was then subjected to PCR (RT-PCR). Forty cycles of the PCR were carried out under the conditions of denaturing at 95° C. for 30 seconds, annealing at 59° C. for 60 seconds, and extension at 73° C. for 90 seconds.
# (§2) As has been described above, using RT-PCR, the expressed amounts of the messenger RNA's of cNOS and iNOS were determined. In this experiment, cNOS was detected, but iNOS was not detected. […] In the table, L-PCA means L-pyrrolidonecarboxylic acid.
# [3] = system: iNOS; assay: RT-PCR of iNOS messenger RNA in angioendothelial cells; conditions: L-PCA 1.0-10.0 mM, 24 hours, RT-PCR 40 cycles
# Protocol: as §1, §2
SMILES,Formed amount of nitric oxide [1] [nmol/10^3 cells],"promoting effect on the production of nitric oxide (in words) ([1]; angioendothelial cells, 24 hours, comparison at 10 mM of added compound)","amount of cNOS depending on the amount of pyrrolidonecarboxylic acid added (in words) ([2]; 1.0-10.0 mM, RT-PCR)",Expressed amount of cNOS (Relative ratio) ([2]; L-PCA added 1.0 mM),Expressed amount of cNOS (Relative ratio) ([2]; L-PCA added 2.5 mM),Expressed amount of cNOS (Relative ratio) ([2]; L-PCA added 5.0 mM),Expressed amount of cNOS (Relative ratio) ([2]; L-PCA added 10.0 mM),expressed amount of messenger RNA of iNOS (detection) [3]
"N=C(N)NCCC[C@H](N)C(=O)O [Comparative Example 2, L-arginine, reference compound]",1.9,,,,,,,
"O=C1CC[C@@H](C(=O)O)N1 [Example 1, L-2-pyrrolidone-5-carboxylic acid]",1.4,,,,,,,
"O=C1CC[C@@H](C(=O)O)N1 [L-PCA, L-2-pyrrolidone-5-carboxylic acid]",,exhibited a promoting effect on the production of nitric oxide,tended to increase,1.00,1.25,1.40,1.75,not detected

# From patent publication US20040248967A1, “Promoter for production of nitric oxide or nitric oxide synthase, and cosmetic or pharmaceutical composition comprising the same” (AJINOMOTO CO., INC., priority 2001, published 2004)
